Source: PubChem BioAssay AID1963839 (Molecular Pharmacology Branch, DTP, NCI, 2024)
Where “and” joins values, the source holds several entries; their conditions need not be identical. Equal entries are not always repeated.

Test system: 817829-284-R-J1-PDC complex spheroid viability
Experiment: Anticancer human tumor 817829-284-R-J1-PDC patient-derived colon adenocarcinoma cell line growth inhibition [POLQ]
Settings: for viability, T/C: stronger effect = lower value
Method: Multicellular complex tumor spheroid response to Polymerase (POL) inhibitors (novobiocin, ART-558, RP6685) in combination with a variety of drugs and investigational agents in selected tumor cell lines
The POL inhibitors (novobiocin, ART-558, and RP6685) were evaluated both individually and in combination with standard of care and investigational anticancer small molecules within a complex spheroid model of solid tumors. . Complex spheroids include a stromal component modeled by human endothelial cells (HUVEC) and fibroblasts modeled by human mesenchymal stem cells (MSCs). The concentration ranges selected for each drug and investigational agent were based upon clinically achievable concentrations if the clinical Cmax of the agent was known.
Compounds. The drugs and investigational agents: novobiocin (NSC847541), ART-558 (NSC835418), RP-6685 (NSC848927), peposertib (NSC802822), ceralasertib (NSC780249), elimusertib (NSC800525), camonsertib (NSC841442), AZD-1390 (NSC803789), olaparib (NSC753686), talazoparib (NSC767125), rucaparib (NSC756644), sotorasib (NSC818433), MRTX-1133 (NSC836407), SN-38 (NSC673596), topotecan (NSC609699), epotoside (NSC141540), doxorubicin (NSC123127), gemcitabine (NSC613327), 5-fluorouracil (NSC19893), paclitaxel (NSC125973), vemurafenib (NSC761431), MSA-2 (NSC828583), SN-011 (NSC837082), adavosertib (NSC754352), prexasertib (NSC758257), carboplatin (NSC241240) and oxaliplatin (NSC266046), were obtained from the National Cancer Institute (NCI) Developmental Therapeutics Program Chemical Repository (21). The FDA-approved anticancer drug set is available from the Developmental Therapeutics Program at https://dtp.cancer.gov/organization/dscb/obtaining/. […] The stock solutions were prepared in dimethyl sulfoxide (DMSO, Sigma-Aldrich, St. Louis, MO, cat. D2650), except for the platinum compounds which were prepared in saline (Quality Biological, Gaithersburg, MD, cat. 114-055-101), at 800-fold the tested concentration and stored at -70 degrees C prior to their use. All drugs and investigational agents were tested over a range starting from a high concentration at or near the clinical Cmax and decreasing in half-log increments. If the clinical Cmax for an agent had not been determined, the highest concentration tested was 10 microM, except for SN-38, which was tested at a high concentration of 1 microM.
Cell Culture. All cells were maintained in an incubator at 37 degrees C and 5% CO2 with 95% humidity. The PDC lines were cultured according to standard operating procedures established by the NCI PDMR (https://pdmr.cancer.gov). Table 3 of the manuscript, lists the cell lines along with the number of the three cell types plated to form the mct-spheroids and media for tumor cell growth. After thawing, all PDC lines, except 997537-175-T-J1-PDC and 415267-285-R-J2-PDC, were cultured in Matrigel-coated flasks prepared with a working solution of 1X Ham's F-12 nutrient mix, without supplementation (Thermo Fisher Scientific, cat. 11765054), 100 U/mL penicillin-streptomycin (Thermo Fisher Scientific, cat. 15140122), and 2.5% Matrigel (Corning Inc., Corning, NY, cat. 354248) for the first three passages. The two PDC lines 997537-175-T-J1-PDC and 415267-285-R-J2-PDC were cultured on uncoated flasks. The 857933-349-R-J2-PDC line was cultured in 6C/Colon 1B media containing advanced DMEM/F-12 (Thermo Fisher Scientific, cat. 12634028), 10 mM HEPES (Thermo Fisher Scientific, cat. 15630080), 1X GlutaMAX supplement (Thermo Fisher Scientific, cat. 35050061), 0.1 mg/mL primocin (InvivoGen, San Diego, CA, cat. ant-pm-2), 10% defined fetal bovine serum, heat inactivated (HyClone Laboratories Inc., Logan, UT, cat. SH30070.03HI), 50% L-WRN conditioned media (ATCC, cat. CRL-3276), 1.25 mM N-Acetyl-L-cysteine (Sigma-Aldrich, cat. A9165), 10 mM nicotinamide (Sigma-Aldrich, cat. N0636), 1X B-27 supplement (Thermo Fisher Scientific, cat. 17504044), 1X N-2 supplement (Thermo Fisher Scientific, cat. […]

[1] = curve of first compound, second compound 0.0316 µM
[2] = curve of first compound, second compound 0.1 µM
[3] = curve of first compound, second compound 0.316 µM
[4] = curve of first compound, second compound 1 µM
[5] = curve of first compound, second compound 3.16 µM
[6] = curve of first compound, second compound 10 µM
[7] = second compound 0.0316 µM, first compound 0.0316 µM
[8] = second compound 0.0316 µM, first compound 0.1 µM
[9] = second compound 0.0316 µM, first compound 0.316 µM
[10] = second compound 0.0316 µM, first compound 1 µM
[11] = second compound 0.0316 µM, first compound 3.16 µM
[12] = second compound 0.0316 µM, first compound 10 µM
[13] = second compound 0.1 µM, first compound 0.0316 µM
[14] = second compound 0.1 µM, first compound 0.1 µM
[15] = second compound 0.1 µM, first compound 0.316 µM
[16] = second compound 0.1 µM, first compound 1 µM
[17] = second compound 0.1 µM, first compound 3.16 µM
[18] = second compound 0.1 µM, first compound 10 µM
[19] = second compound 0.316 µM, first compound 0.0316 µM
[20] = second compound 0.316 µM, first compound 0.1 µM
[21] = second compound 0.316 µM, first compound 0.316 µM
[22] = second compound 0.316 µM, first compound 1 µM
[23] = second compound 0.316 µM, first compound 3.16 µM
[24] = second compound 0.316 µM, first compound 10 µM
[25] = second compound 1 µM, first compound 0.0316 µM
[26] = second compound 1 µM, first compound 0.1 µM
[27] = second compound 1 µM, first compound 0.316 µM
[28] = second compound 1 µM, first compound 1 µM
[29] = second compound 1 µM, first compound 3.16 µM
[30] = second compound 1 µM, first compound 10 µM
[31] = second compound 3.16 µM, first compound 0.0316 µM
[32] = second compound 3.16 µM, first compound 0.1 µM
[33] = second compound 3.16 µM, first compound 0.316 µM
[34] = second compound 3.16 µM, first compound 1 µM
[35] = second compound 3.16 µM, first compound 3.16 µM
[36] = second compound 3.16 µM, first compound 10 µM
[37] = second compound 10 µM, first compound 0.0316 µM
[38] = second compound 10 µM, first compound 0.1 µM
[39] = second compound 10 µM, first compound 0.316 µM
[40] = second compound 10 µM, first compound 1 µM
[41] = second compound 10 µM, first compound 3.16 µM
[42] = second compound 10 µM, first compound 10 µM
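Note: spheroids exposed to compounds for 7 days.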
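Throughout, for viability, T/C: 100% = DMSO vehicle-treated spheroids.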

O=C(c1cc(Cc2n[nH]c(=O)c3ccccc23)ccc1F)N1CCN(C(=O)C2CC2)CC1 + COC1C(OC(N)=O)C(O)C(Oc2ccc3c(O)c(NC(=O)c4ccc(O)c(CC=C(C)C)c4)c(=O)oc3c2C)OC1(C)C
IC50 [1]: 2180 nM
IC50 [2]: 4580 nM
IC50 [3]: 3280 nM
IC50 [4]: 4290 nM
IC50 [5]: 3830 nM
IC50 [6]: 4490 nM
viability, T/C [7]: 71.5%
viability, T/C [8]: 109%
viability, T/C [9]: 88.3%
viability, T/C [10]: 61.2%
viability, T/C [11]: 49.8%
viability, T/C [12]: 33.7%
viability, T/C [13]: 94.9%
viability, T/C [14]: 86.5%
viability, T/C [15]: 83.7%
viability, T/C [16]: 68.2%
viability, T/C [17]: 68.7%
viability, T/C [18]: 25.8%
viability, T/C [19]: 105%
viability, T/C [20]: 98.4%
viability, T/C [21]: 85.7%
viability, T/C [22]: 90.1%
viability, T/C [23]: 50%
viability, T/C [24]: 32.2%
viability, T/C [25]: 88.3%
viability, T/C [26]: 99.9%
viability, T/C [27]: 81.4%
viability, T/C [28]: 75.7%
viability, T/C [29]: 61.2%
viability, T/C [30]: 24.3%
viability, T/C [31]: 114%
viability, T/C [32]: 92.5%
viability, T/C [33]: 75.2%
viability, T/C [34]: 70.3%
viability, T/C [35]: 63.2%
viability, T/C [36]: 30.2%
viability, T/C [37]: 90.5%
viability, T/C [38]: 95.3%
viability, T/C [39]: 68.8%
viability, T/C [40]: 102%
viability, T/C [41]: 60.7%
viability, T/C [42]: 25.7%

COc1cccc2c1C(=O)c1c(O)c3c(c(O)c1C2=O)CC(O)(C(=O)CO)CC3OC1CC(N)C(O)C(C)O1 (stereo unspecified)
viability, T/C (compound 0.0316 µM): 16.9% and 19.5% and 19.8%
viability, T/C (compound 0.1 µM): 16.4% and 18.4% and 91.1%
viability, T/C (compound 0.316 µM): 5.17% and 6.51% and 6.09%
viability, T/C (compound 1 µM): 1.01% and 0.37% and 0.7%
viability, T/C (compound 3.16 µM): 0.33% and 0.32% and 0.25%
viability, T/C (compound 10 µM): 0.58% and 0.63% and 0.52%
IC50 (curve of compound): < 31.6 nM and 114 nM

CC1COCCN1c1cc(C2(S(C)(=N)=O)CC2)nc(-c2ccnc3[nH]ccc23)n1 (stereo unspecified) + COC1C(OC(N)=O)C(O)C(Oc2ccc3c(O)c(NC(=O)c4ccc(O)c(CC=C(C)C)c4)c(=O)oc3c2C)OC1(C)C
IC50 [1]: 338 nM
IC50 [2]: 422 nM
IC50 [3]: 363 nM
IC50 [4]: 440 nM
IC50 [5]: 169 nM
IC50 [6]: 241 nM
viability, T/C [7]: 85.6%
viability, T/C [8]: 74.6%
viability, T/C [9]: 53.1%
viability, T/C [10]: 19.9%
viability, T/C [11]: 6.56%
viability, T/C [12]: 4.6%
viability, T/C [13]: 98.5%
viability, T/C [14]: 105%
viability, T/C [15]: 58.7%
viability, T/C [16]: 19.9%
viability, T/C [17]: 7.9%
viability, T/C [18]: 4.68%
viability, T/C [19]: 92.7%
viability, T/C [20]: 76.3%
viability, T/C [21]: 56.8%
viability, T/C [22]: 21%
viability, T/C [23]: 6.66%
viability, T/C [24]: 4.27%
viability, T/C [25]: 94.5%
viability, T/C [26]: 110%
viability, T/C [27]: 59.2%
viability, T/C [28]: 23.4%
viability, T/C [29]: 9.79%
viability, T/C [30]: 4.86%
viability, T/C [31]: 89.9%
viability, T/C [32]: 60.2%
viability, T/C [33]: 37.9%
viability, T/C [34]: 20.8%
viability, T/C [35]: 8.42%
viability, T/C [36]: 4.19%
viability, T/C [37]: 111%
viability, T/C [38]: 63.3%
viability, T/C [39]: 51.7%
viability, T/C [40]: 24.6%
viability, T/C [41]: 9.19%
viability, T/C [42]: 4.6%
